In patent US20260250318A1, “COMPOSITIONS AND METHODS FOR CROSSING THE BLOOD BRAIN BARRIER” (VOYAGER THERAPEUTICS, INC., priority 2022, published 2026):

Tests used:
Settings in all cases: synthetic library passage 3, intravenous, relative to wild-type AAV9
brain [1] = assay: NGS fold enrichment of synthetic library (passage 3) in BALB/c mice, first cross-species screen; format: in vivo
In short: (§1)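 Passage-3 synthetic capsid library given intravenously […] to NHPs (2-4 years) and BALB/c or C57Bl/6 mice (n=3, 6-8 weeks). After e.g. 28 days, tissue RNA was RT-PCR amplified and NGS-sequenced; values are fold enrichment of each variant relative to wild-type AAV9.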

[2] = tested on: brain, spinal cord, and DRG of the NHPs; assay: NGS fold enrichment of synthetic library (passage 3) in NHPs, first cross-species screen; format: in vivo, cynomolgus macaques (Macaca fascicularis)
In short: as §1

brain [3] = assay: NGS fold enrichment of synthetic library (passage 3) in C57Bl/6 mice, first cross-species screen; format: in vivo
In short: as §1

[4] = RNA from brain of BALB/c mice, NGS
[5] = RNA from spinal cord of NHPs, NGS
[6] = RNA from brain of C57Bl/6 mice, NGS

| Sequence | Fold enrichment over AAV9 in the brain of Mice (BALB/c) (brain [1]; RNA NGS, brain of BALB/c mice) | Fold enrichment over AAV9 in the brain of NHPs ([2]; RNA NGS, brain of NHPs) | Fold enrichment over AAV9 in the spinal cord of NHPs ([2]; RNA NGS, spinal cord of NHPs) | Fold enrichment over AAV9 in the brain of Mice (C57Bl/6) (brain [3]; RNA NGS, brain of C57Bl/6 mice) | Fold enrichment over AAV9 in the brain of Mice (BALB/c) (brain [1]; [4]) | Fold enrichment over AAV9 in the brain of NHPs ([2]; RNA from brain of NHPs, NGS) | Fold enrichment over AAV9 in the spinal cord of NHPs [2, 5] | Fold enrichment over AAV9 in the brain of Mice (C57Bl/6) (brain [3]; [6]) |
| --- | --- | --- | --- | --- | --- | --- | --- | --- |
| GSRTTQVIGQNQQT | 0.564 fold | 1.570 fold | 1.838 fold | 0.773 fold | – | – | – | – |
| GSRTVPVYGQNQQT | – | – | – | – | 0.969 fold | 1.371 fold | 0.363 fold | 1.226 fold |
| GSRTYQVSGQNQQT | – | – | – | – | 0.641 fold | 1.164 fold | 1.853 fold | 0.638 fold |
| GSSGHRESGQNQQT | 0.691 fold | 1.048 fold | 4.398 fold | 0.641 fold | – | – | – | – |
| GSSGIPVSHQNQQT | 0.333 fold | 1.690 fold | 3.384 fold | 0.820 fold | – | – | – | – |
| GSSGRDMGGQNQQT | 0.595 fold | 1.778 fold | 2.177 fold | 1.052 fold | – | – | – | – |
| GSSGSHQYGQNQQT | – | – | – | – | 0.794 fold | 1.155 fold | 0.000 fold | 1.129 fold |
| GSSHRFYGGQNQQT | 0.110 fold | 4.732 fold | 0.000 fold | 0.787 fold | – | – | – | – |
| GSSHTLALGQNKQT | – | – | – | – | 0.643 fold | 1.362 fold | 2.160 fold | 0.838 fold |
| GSSHTLALGQNQQT | 0.406 fold | 1.441 fold | 7.071 fold | 0.851 fold | – | – | – | – |
| GSSHTQALGQNQQT | 0.874 fold | 1.784 fold | 0.143 fold | 0.882 fold | – | – | – | – |
| GSSKELLWGQNQQT | 0.883 fold | 2.163 fold | 0.000 fold | 0.506 fold | – | – | – | – |
| GSSPAPNSGQNQQT | 0.368 fold | 1.106 fold | 2.229 fold | 0.719 fold | – | – | – | – |
| GSSQNQQHDMRLRT | – | – | – | – | 0.552 fold | 1.386 fold | 2.645 fold | 0.669 fold |
| GSSQSTGYQPNQQT | 0.577 fold | 1.847 fold | 3.388 fold | 0.522 fold | – | – | – | – |
| GSSREFHSGQNQQT | – | – | – | – | 0.474 fold | 1.203 fold | 1.591 fold | 0.688 fold |

| Sequence | Fold enrichment over AAV9 in the brain of Mice (BALB/c) (brain [1]; RNA NGS, brain of BALB/c mice) | Fold enrichment over AAV9 in the brain of NHPs ([2]; RNA NGS, brain of NHPs) | Fold enrichment over AAV9 in the spinal cord of NHPs ([2]; RNA NGS, spinal cord of NHPs) | Fold enrichment over AAV9 in the brain of Mice (C57Bl/6) (brain [3]; RNA NGS, brain of C57Bl/6 mice) | Fold enrichment over AAV9 in the brain of Mice (BALB/c) (brain [1]; [4]) | Fold enrichment over AAV9 in the brain of NHPs ([2]; RNA from brain of NHPs, NGS) | Fold enrichment over AAV9 in the spinal cord of NHPs [2, 5] | Fold enrichment over AAV9 in the brain of Mice (C57Bl/6) (brain [3]; [6]) |
| --- | --- | --- | --- | --- | --- | --- | --- | --- |
| GSSRVPVSGQNQQT | – | – | – | – | 0.485 fold | 1.385 fold | 13.191 fold | 0.870 fold |
| GSSSPGASGQNQQT | 0.660 fold | 1.717 fold | 1.244 fold | 1.378 fold | – | – | – | – |
| GSSTLVTIGKNQQT | 0.819 fold | 1.592 fold | 4.316 fold | 0.917 fold | – | – | – | – |
| GSSTRVDSGQNQQT | 0.660 fold | 1.584 fold | 2.774 fold | 0.704 fold | – | – | – | – |
| GSSTTIVSGQNHQT | 0.672 fold | 1.411 fold | 0.000 fold | 0.993 fold | – | – | – | – |
| GSSVGSPIGQNQQT | 0.706 fold | 1.584 fold | 3.574 fold | 1.059 fold | – | – | – | – |
| GSSVGVPSGQNQQT | – | – | – | – | 1.157 fold | 1.322 fold | 4.867 fold | 0.336 fold |
| GSSVNSMIGQNQQT | – | – | – | – | 0.580 fold | 1.239 fold | 0.000 fold | 0.976 fold |
| GSSVRSLVGQNQQT | 0.608 fold | 1.004 fold | 3.840 fold | 0.412 fold | – | – | – | – |
| GSSVRYEPKQNQQT | 0.501 fold | 1.063 fold | 1.564 fold | 0.450 fold | – | – | – | – |
| GSSVSPSSGQNQQT | 0.787 fold | 2.054 fold | 0.579 fold | 1.064 fold | – | – | – | – |
| GSTGIVSSGQNQQT | 1.046 fold | 1.570 fold | 0.927 fold | 2.141 fold | – | – | – | – |
| GSTGSHSAGQNQHT | 0.850 fold | 3.717 fold | 0.285 fold | 1.190 fold | – | – | – | – |
| GSTPAGVGGQNQQT | 0.477 fold | 1.663 fold | 2.733 fold | 0.593 fold | – | – | – | – |
| GSTVQDTRGQNQQT | 0.473 fold | 2.270 fold | 4.979 fold | 0.576 fold | – | – | – | – |
